Measured values reported in patent US10898469B2, “Imidazolylamide derivative” (Sumitomo Dainippon Pharma Co., Ltd., priority 2016, dated 2021).

Assays:
Format in all cases: cell-based, human
HCT-116 cells [1] = test: Inhibition test for sphere-forming ability of cancer cells (Test Example 1), HCT-116; conditions: for IC50: HCT-116 cells, concentration for 50% inhibition of cell proliferation, read-out: IC50 (μmol/L) HCT-116 (Sphere IC50 value); for inhibitory effect on the sphere-forming ability of cancer cells: Test Example 1, summary in words, cell line not given (HCT-116, HT-29, FaDu tested)
In short: (§1)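 Under non-adherent, serum-free conditions with growth factors (EGF 20 ng/mL, bFGF 10 ng/mL), 350-800 cells per well formed spheres in the presence of test compound at 0.1% DMSO. Viable cell number after 4 days, by CellTiter-Glo, defined the 50% inhibitory concentration.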

HT-29 cells [2] = test: Inhibition test for sphere-forming ability of cancer cells (Test Example 1), HT-29; conditions: concentration for 50% inhibition of cell proliferation, read-out: IC50 (μmol/L) HT-29 (Sphere IC50 value)
In short: as §1

FaDu cells [3] = test: Inhibition test for sphere-forming ability of cancer cells (Test Example 1), FaDu; conditions: concentration for 50% inhibition of cell proliferation, read-out: IC50 (μmol/L) FaDu (Sphere IC50 value)
In short: as §1

HCT-116 cells [4] = test: Inhibition test for sphere-forming ability of cancer cells in the presence of BSA (Test Example 2), HCT-116; conditions: for IC50: HCT-116 cells, in the presence of 5% BSA, cultured 4 days; for inhibitory effect on the sphere-forming ability of cancer cells: Test Example 2, in the presence of 5% BSA, summary in words, cell line not given (HCT-116, HT-29, FaDu tested)
In short: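 Spheres grown 4 days in ultra-low-attachment wells, 350-800 cells/well, in DMEM/F12 with 2% B27, 20 ng/mL EGF, 10 ng/mL bFGF, 5 μg/mL insulin and 5% BSA; 0.1% DMSO final. Viable cells read by CellTiter-Glo luminescence; Sphere IC50 (μmol/L) for 50% proliferation inhibition.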

HT-29 cells [5] = test: Inhibition test for sphere-forming ability of cancer cells in the presence of BSA (Test Example 2), HT-29; conditions: in the presence of 5% BSA, cultured 4 days
Procedure: (§2) Human colorectal cancer-derived HCT-116 cells, human colon-adenocarcinoma-derived HT-29 cells, and human pharyngeal cancer-derived FaDu cells were available from American Type Culture Collection (ATCC). HCT-116 cells and HT-29 cells were cultured at 37° C. under 5% CO2 using the McCoy's 5a medium containing 10% fetal bovine serum (FBS) and 1% penicillin/streptomycin, and FaDu cells were cultured at 37° C. under 5% CO2 using the MEM medium containing 10% FBS, 1% non-essential amino acid, 1% sodium pyruvate, 5% bovine serum albumin (BSA), and 1% penicillin/streptomycin. HCT-116 cells, HT-29 cells, and FaDu cells were seeded in a 384 Well Black Clear Bottom Ultra-Low Attachment Microplate (Corning Cat. No. 3827) in an amount of 350-800 cells/well using the DMEM/F12 medium containing 2% B27 supplement (GIBCO), 20 ng/mL epidermal growth factor (EGF) (peprotech), 10 ng/mL basic fibroblast growth factor (bFGF) (peprotech), 5 μg/mL insulin (Sigma), 5% bovine serum albumin (BSA), and 1% penicillin/streptomycin. Each test compound was added into each well to adjust the final concentration of DMSO to 0.1%, and the cells were cultured for 4 days. The number of viable cells in each well was then measured with CellTiter-Glo® Luminescent Cell Viability Assay (Promega) to calculate the concentration of each test compound for 50% inhibition of cell proliferation (Sphere IC50 value; μmol/L).
(§3) The experiment of Test Example 2 was performed for each compound of each Example.
(§4) The concentration of each test compound for 50% inhibition of cell proliferation (Sphere IC50 value; μmol/L) is shown in the following Table.

FaDu cells [6] = test: Inhibition test for sphere-forming ability of cancer cells in the presence of BSA (Test Example 2), FaDu; conditions: in the presence of 5% BSA, cultured 4 days
Procedure: as §2, §3, §4

Compound	IC50 (HCT-116 cells [1]; Homo sapiens) [µmol/L]	inhibitory effect on the sphere-forming ability of cancer cells (HCT-116 cells [1])	IC50 (HT-29 cells [2]; Homo sapiens) [µmol/L]	IC50 (FaDu cells [3]; Homo sapiens) [µmol/L]	IC50 (HCT-116 cells [4]; Homo sapiens, HCT-116, 96 h) [nM]	inhibitory effect on the sphere-forming ability of cancer cells (HCT-116 cells [4])	IC50 (HT-29 cells [5]; Homo sapiens, 96 h) [nM]	IC50 (FaDu cells [6]; Homo sapiens, 96 h) [nM]	IC50 (HCT-116 cells [1]) [µmol/L]	IC50 (HT-29 cells [2]) [µmol/L]	IC50 (FaDu cells [3]) [µmol/L]	IC50 (HCT-116 cells [4]) [nM]	IC50 (HT-29 cells [5]) [nM]	IC50 (FaDu cells [6]) [nM]
COc1ccc(C(=O)Nc2cn(Cc3cc(F)c(F)c(F)c3)cn2)cc1OC [Example 236, 3,4-dimethoxy-N-[1-(3,4,5-trifluorobenzyl)-1H-imidazol-4-yl]benzamide]	0.06	particularly potent inhibitory effect	0.05	0.05	360	particularly potent inhibitory effect	60	40	–	–	–	–	–	–
COc1ccc(C(=O)Nc2cn(Cc3cc(F)cc(F)c3F)cn2)cc1OC [Example 154]	–	–	–	–	–	–	–	–	0.71	0.8	0.88	> 10000	890	600
COc1ccc(C(=O)Nc2cn(Cc3cc(F)cc(F)c3)cn2)cc1OC [Example 152, 3,4-dimethoxy-N-[1-(3,5-difluorobenzyl)-1H-imidazol-4-yl]benzamide]	0.09	particularly potent inhibitory effect	0.09	0.42	570	–	630	150	–	–	–	–	–	–
Cl.O=C(/C=C/c1ccc(F)c(O)c1)Nc1cn(Cc2cccc(C(F)(F)F)c2)cn1 [Example 37, (E)-3-(4-Fluoro-3-hydroxyphenyl)-N-(1-(3-(trifluoromethyl)benzyl)-1H-imidazol-4-yl)acrylamide Hydrochloride]	0.25	particularly potent inhibitory effect	0.93	< 0.01	550	particularly potent inhibitory effect	100	< 10	–	–	–	–	–	–
CC(=O)Nc1ccc(C(=O)Nc2cn(Cc3cccc(Cl)c3)cn2)cn1 [Example 247, 6-(Acetylamino)-N-[1-(3-chlorobenzyl)-1H-imidazol-4-yl]nicotinamide]	9.22	–	0.42	7.25	9840	–	7150	6800	–	–	–	–	–	–
O=C(/C=C/c1ccc(NCC(F)F)nc1)Nc1cn(Cc2cccc(Cl)c2)cn1 [Example 14, (E)-N-(1-(3-Chlorobenzyl)-1H-imidazol-4-yl)-3-(6-((2,2-difluoroethyl)amino)pyridin-3-yl)acrylamide]	0.06	particularly potent inhibitory effect	< 0.01	0.04	360	particularly potent inhibitory effect	60	60	–	–	–	–	–	–
CNc1ccc(/C=C/C(=O)Nc2cn(Cc3cccc(C(F)(F)F)c3)cn2)cn1 [Example 17]	–	particularly potent inhibitory effect	–	–	–	particularly potent inhibitory effect	–	–	0.08	0.04	0.08	640	350	50
O=C(Nc1ccc2c(O)cccc2c1)c1cn(Cc2cccc(Cl)c2)cn1 [Example 256]	–	–	–	–	–	–	–	–	4.97	7.24	0.65	6170	6610	4410
N#Cc1ccc(/C=C/C(=O)Nc2cn(Cc3cccc(C(F)(F)F)c3)cn2)cc1OCCO [Example 36, (E)-3-(4-Cyano-3-(2-hydroxyethoxy)phenyl)-N-(1-(3-(trifluoromethyl)benzyl)-1H-imidazol-4-yl)acrylamide]	0.08	particularly potent inhibitory effect	0.06	0.08	690	particularly potent inhibitory effect	520	60	–	–	–	–	–	–
COc1ccc(C(=O)Nc2cn(Cc3c(F)cccc3F)cn2)cc1OC [Example 150]	–	–	–	–	–	–	–	–	0.69	3.56	6.21	> 10000	> 10000	7810
